# In US20240374595A1, “SUBSTITUTED 1,1'-BIPHENYL COMPOUNDS, ANALOGUES THEREOF, AND METHODS USING SAME” (Arbutus Biopharma Corporation, priority 2018, published 2024):
# Molecular target: PD-L1 (Homo sapiens (Human), UniProt Q9NZQ7)
# Experiment: PD-L1 HTRF assay (PD-1/PD-L1 interaction)
# Type: binding
# Conditions: PD-L1 His 6 nM, PD-1 Fc 6 nM; inhibitors 3-fold diluted from 20 μM
# Experimental: PD-L1 small molecule inhibitors were diluted by 3-fold starting from 20 μM and a final concentration of 0.001 μM and added to the well. PD-1 Fc protein was added at the final concentration of 6 nM. PD-L1 His protein, PD-L1 small molecule inhibitors, and PD1 Fc proteins were added to the well in this order, with each 5 μl volume, and were incubated for 15 minutes at room temperature. […] The plate was read using PerkinElmer Envision plate reader and data was analyzed by Prism 6 software.
# Sequence of PD-L1 (Q9NZQ7 19-238): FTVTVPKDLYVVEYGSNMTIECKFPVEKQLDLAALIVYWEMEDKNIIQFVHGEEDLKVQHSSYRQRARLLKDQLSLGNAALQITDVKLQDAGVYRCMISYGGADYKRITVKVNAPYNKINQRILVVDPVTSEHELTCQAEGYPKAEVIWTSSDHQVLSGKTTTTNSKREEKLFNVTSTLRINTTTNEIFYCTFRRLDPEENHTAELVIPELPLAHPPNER
row,Structure (SMILES),IC50 [nM]
1,"Cc1c(COc2ccc(-c3nc(CO)c[nH]3)c(OCc3cccc(C#N)c3)c2)cccc1-c1ccccc1 [Example 5, 3-[[2-[4-(Hydroxymethyl)-1H-imidazol-2-yl]-5-[(2-methyl-3-phenyl-phenyl)methoxy]phenoxy]methyl]benzonitrile]",16000
2,"Cc1c(NC(=O)c2ccc(CNCCO)cn2)cccc1-c1cccc(OCCCN2CCC(O)CC2)c1C [Example 33, 5-[(2-hydroxyethylamino)methyl]-N-[3-[3-[3-(4-hydroxy-1-piperidyl)propoxy]-2-methyl-phenyl]-2-methyl-phenyl]pyridine-2-carboxamide]",3.7
3,"Cc1c(COc2ccc(C3=NCCN3CCO)c(OCc3cccc(C#N)c3)c2)cccc1-c1ccccc1 [Example 6, 3-[[2-[1-(2-Hydroxyethyl)-4,5-dihydroimidazol-2-yl]-5-[(2-methyl-3-phenyl-phenyl)methoxy]phenoxy]methyl]benzonitrile]",53
4,"Cc1c(COc2ccc(-c3nccn3CCO)c(OCc3cccc(C#N)c3)c2)cccc1-c1ccccc1 [Example 7, 3-[[2-[1-(2-Hydroxyethyl)imidazol-2-yl]-5-[(2-methyl-3-phenyl-phenyl)methoxy]phenoxy]methyl]benzonitrile]",1800
5,"CC(=O)NCC/N=C(\NCCNC(C)=O)c1ccc(OCc2cccc(-c3ccccc3)c2C)cc1OCc1cccc(C#N)c1 [Example 14, N-[2-[[(Z)—N-(2-Acetamidoethyl)-C-[2-[(3-cyanophenyl)methoxy]-4-[(2-methyl-3-phenyl-phenyl)methoxy]phenyl]carbonimidoyl]amino]ethyl]acetamide]",330
6,"COc1cc(OCc2cccc(-c3cccc(COc4cc(OC)c(CN5CCCC[C@H]5C(=O)O)cc4Cl)c3C)c2C)c(Cl)cc1CO [Example 30, (2S)-1-[[5-chloro-4-[[3-[3-[[2-chloro-4-(hydroxymethyl)-5-methoxy-phenoxy]methyl]-2-methyl-phenyl]-2-methyl-phenyl]methoxy]-2-methoxy-phenyl]methyl]piperidine-2-carboxylic acid]",4
7,"Cc1c(COc2cc(OCc3cncc(C#N)c3)c(C3=NCC(OCC(=O)O)CN3)cc2Cl)cccc1-c1cccc(OCCCN2CCC(O)CC2)c1C (stereo not shown) [Example 21, 2-[[2-[5-Chloro-2-[(5-cyano-3-pyridyl)methoxy]-4-[[3-[3-[3-(4-hydroxy-1-piperidyl)propoxy]-2-methyl-phenyl]-2-methyl-phenyl]methoxy]phenyl]-1,4,5,6-tetrahydropyrimidin-5-yl]oxy] acetic acid]",0.8
8,"Cc1c(NC(=O)c2ccc(CNCCO)cn2)cccc1-c1cccc(NC(=O)c2ccc(CNCCO)cn2)c1C [Example 34, 5-[(2-Hydroxyethylamino)methyl]-N-[3-[3-[[5-[(2-hydroxyethylamino)methyl]pyridine-2-carbonyl]amino]-2-methyl-phenyl]-2-methyl-phenyl]pyridine-2-carboxamide]",1
9,"Cc1c(COc2ccc(-c3ncc[nH]3)c(OCc3cccc(C#N)c3)c2)cccc1-c1ccccc1 [Example 2, 3-[[2-(1H-Imidazol-2-yl)-5-[(2-methyl-3-phenyl-phenyl)methoxy]phenoxy]methyl] benzonitrile]",20000
10,"Cc1c(COc2ccc(C3=NCCCN3C)c(OCc3cccc(C#N)c3)c2)cccc1-c1ccccc1 [Example 11, 3-[[2-(1-Methyl-5,6-dihydro-4H-pyrimidin-2-yl)-5-[(2-methyl-3-phenyl-phenyl)methoxy]phenoxy]methyl]benzonitrile]",300
